Laboratory results as given in patent publication US5177106A, “4-amino substituted phenoxyalkyl carboxylic acid, ester, and alcohol derivatives as antihypercholesterolemic and antiatherosclerotic agents” (Warner-Lambert Company, priority 1991, dated 1993).
pIC50: −log10 of the molar value.

What was measured:
[1] = target: T1, acyl-CoA:cholesterol acyltransferase (ACAT) (Oryctolagus cuniculus, UniProt G1SFD9); experiment: Inhibition of cholesterol esterification by acyl-CoA:cholesterol acyltransferase (ACAT), in vitro, rabbit intestinal microsomal fraction; assay type: biochemical; conditions: endogenous cholesterol and exogenous 14C-oleoyl-CoA, read-out: IC50 (concentration of test compound required to inhibit cholesteryl oleate formation to 50% of control)
T1 construct: rabbit intestinal microsomal fraction; from tissue; host or cells: rabbit intestine, microsomal fraction
T1 sequence (G1SFD9 1-524): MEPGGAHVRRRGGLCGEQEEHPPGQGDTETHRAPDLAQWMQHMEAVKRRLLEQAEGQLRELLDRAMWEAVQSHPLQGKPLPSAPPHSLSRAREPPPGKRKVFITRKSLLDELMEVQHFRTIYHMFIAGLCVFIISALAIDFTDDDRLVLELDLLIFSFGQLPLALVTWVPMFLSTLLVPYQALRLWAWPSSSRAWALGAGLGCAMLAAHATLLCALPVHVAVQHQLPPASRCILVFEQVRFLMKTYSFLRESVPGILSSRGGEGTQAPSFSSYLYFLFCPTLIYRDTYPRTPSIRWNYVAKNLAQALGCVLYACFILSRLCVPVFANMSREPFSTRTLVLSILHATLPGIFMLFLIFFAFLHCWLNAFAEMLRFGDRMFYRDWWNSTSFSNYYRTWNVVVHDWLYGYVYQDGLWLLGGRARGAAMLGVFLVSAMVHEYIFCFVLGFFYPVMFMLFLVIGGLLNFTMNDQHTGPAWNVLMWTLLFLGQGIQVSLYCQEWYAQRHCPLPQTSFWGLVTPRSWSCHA
Protocol: The compounds of the present invention were tested for their ability to inhibit the esterification of cholesterol by the enzyme acyl-CoA:cholesterol acyltransferase (ACAT). The data in the table below is expressed as IC50 values, i.e., the concentration of test compound required to inhibit cholesteryl oleate formation to 50% of control.
The in vitro test employed is more fully described in Field, F. J. and Salome, R. G., Biochemica et Biophysica Acta, Volume 712, pages 557-570 (1982). The assay evaluates the ability of a test compound to inhibit the esterification of cholesterol using endogenous cholesterol of a rabbit intestinal microsomal fraction and exogenous ^14 C-oleoyl-CoA as reactants.

[2] = Elevation of HDL by test drug relative to gemfibrozil (test procedure of U.S. Pat. No. 4,413,011); assay type: in vivo; conditions: ratio; 50 mg/kg test drug vs 50 mg/kg gemfibrozil; 1 = as effective as gemfibrozil
Protocol: Additionally, the elevation of HDL is reported in the table as a ratio of the elevation of HDL effected by a dose of 50 mg/kg of the test drug divided by the elevation of HDL effected by a 50 mg/kg dose of gemfibrozil which is used as a control in each experiment. [formula] Thus, a figure of 1 means that the test drug was as effective as gemfibrozil in elevating HDL. […] The test procedure is described in U.S. Pat. No. 4,413,011, which is herein incorporated by reference.

[3] = patients with elevated cholesterol levels; 5-year trial; cited from earlier work

Structure (SMILES)	pIC50 [1]	Δ HDL Test Compound / Δ HDL Gemfibrozil [2]	reduction of the rate of heart attack and sudden cardiac death [3] [%]
CCCCCCCCCCCCCCCCS(=O)(=O)Nc1cc(C)c(OCCCC(C)(C)C(=O)OC)cc1C [Example 5, 5-[4-[(Hexadecylsulfonyl)amino]-2,5-dimethylphenoxy]-2,2-dimethylpentanoic acid, methyl ester]	4.13	0.8	
COC(=O)C(C)(C)CCCOc1cc(C)c(NC(=S)Nc2ccccc2)cc1C [Example 16, 5-[2,5-Dimethyl-4-[[(phenylamino)-thioxomethyl]amino]phenoxy]-2,2-dimethylpentanoic acid, methyl ester]	4.55	0.9	
Cc1ccc(C)c(OCCCC(C)(C)C(=O)O)c1 [gemfibrozil]			34
COC(=O)C(C)(C)CCCOc1cc(C)c(NS(C)(=O)=O)cc1C [Example 12]	4.16	1.5	
